Laboratory results as given in patent publication US9302991B2, “Arylamide derivatives as TTX-S blockers” (RaQualia Pharma Inc., priority 2010, dated 2016).

Target: T1, human Nav1.7 channels (Homo sapiens, UniProt Q15858)
T1 construct: expressed in transfected cells; host or cells: CHO
Test: FRET assay, human Nav1.7 (EFS on FDSS)
Assay type: cell-based
Conditions: CHO cells expressing human Nav1.7, read-out: IC50 against Nav1.7
Procedure, shortened: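 CHO cells stably expressing the channel, loaded with CC2-DMPE (10 µM) then DiSBAC2(3) (15 µM) plus VABSC-1, in HEPES-buffered saline pH 7.4 at room temperature. Electrical field stimulation on FDSS; FRET ratio at 440 nm fitted for IC50.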

T1 sequence (Q15858 whole entry): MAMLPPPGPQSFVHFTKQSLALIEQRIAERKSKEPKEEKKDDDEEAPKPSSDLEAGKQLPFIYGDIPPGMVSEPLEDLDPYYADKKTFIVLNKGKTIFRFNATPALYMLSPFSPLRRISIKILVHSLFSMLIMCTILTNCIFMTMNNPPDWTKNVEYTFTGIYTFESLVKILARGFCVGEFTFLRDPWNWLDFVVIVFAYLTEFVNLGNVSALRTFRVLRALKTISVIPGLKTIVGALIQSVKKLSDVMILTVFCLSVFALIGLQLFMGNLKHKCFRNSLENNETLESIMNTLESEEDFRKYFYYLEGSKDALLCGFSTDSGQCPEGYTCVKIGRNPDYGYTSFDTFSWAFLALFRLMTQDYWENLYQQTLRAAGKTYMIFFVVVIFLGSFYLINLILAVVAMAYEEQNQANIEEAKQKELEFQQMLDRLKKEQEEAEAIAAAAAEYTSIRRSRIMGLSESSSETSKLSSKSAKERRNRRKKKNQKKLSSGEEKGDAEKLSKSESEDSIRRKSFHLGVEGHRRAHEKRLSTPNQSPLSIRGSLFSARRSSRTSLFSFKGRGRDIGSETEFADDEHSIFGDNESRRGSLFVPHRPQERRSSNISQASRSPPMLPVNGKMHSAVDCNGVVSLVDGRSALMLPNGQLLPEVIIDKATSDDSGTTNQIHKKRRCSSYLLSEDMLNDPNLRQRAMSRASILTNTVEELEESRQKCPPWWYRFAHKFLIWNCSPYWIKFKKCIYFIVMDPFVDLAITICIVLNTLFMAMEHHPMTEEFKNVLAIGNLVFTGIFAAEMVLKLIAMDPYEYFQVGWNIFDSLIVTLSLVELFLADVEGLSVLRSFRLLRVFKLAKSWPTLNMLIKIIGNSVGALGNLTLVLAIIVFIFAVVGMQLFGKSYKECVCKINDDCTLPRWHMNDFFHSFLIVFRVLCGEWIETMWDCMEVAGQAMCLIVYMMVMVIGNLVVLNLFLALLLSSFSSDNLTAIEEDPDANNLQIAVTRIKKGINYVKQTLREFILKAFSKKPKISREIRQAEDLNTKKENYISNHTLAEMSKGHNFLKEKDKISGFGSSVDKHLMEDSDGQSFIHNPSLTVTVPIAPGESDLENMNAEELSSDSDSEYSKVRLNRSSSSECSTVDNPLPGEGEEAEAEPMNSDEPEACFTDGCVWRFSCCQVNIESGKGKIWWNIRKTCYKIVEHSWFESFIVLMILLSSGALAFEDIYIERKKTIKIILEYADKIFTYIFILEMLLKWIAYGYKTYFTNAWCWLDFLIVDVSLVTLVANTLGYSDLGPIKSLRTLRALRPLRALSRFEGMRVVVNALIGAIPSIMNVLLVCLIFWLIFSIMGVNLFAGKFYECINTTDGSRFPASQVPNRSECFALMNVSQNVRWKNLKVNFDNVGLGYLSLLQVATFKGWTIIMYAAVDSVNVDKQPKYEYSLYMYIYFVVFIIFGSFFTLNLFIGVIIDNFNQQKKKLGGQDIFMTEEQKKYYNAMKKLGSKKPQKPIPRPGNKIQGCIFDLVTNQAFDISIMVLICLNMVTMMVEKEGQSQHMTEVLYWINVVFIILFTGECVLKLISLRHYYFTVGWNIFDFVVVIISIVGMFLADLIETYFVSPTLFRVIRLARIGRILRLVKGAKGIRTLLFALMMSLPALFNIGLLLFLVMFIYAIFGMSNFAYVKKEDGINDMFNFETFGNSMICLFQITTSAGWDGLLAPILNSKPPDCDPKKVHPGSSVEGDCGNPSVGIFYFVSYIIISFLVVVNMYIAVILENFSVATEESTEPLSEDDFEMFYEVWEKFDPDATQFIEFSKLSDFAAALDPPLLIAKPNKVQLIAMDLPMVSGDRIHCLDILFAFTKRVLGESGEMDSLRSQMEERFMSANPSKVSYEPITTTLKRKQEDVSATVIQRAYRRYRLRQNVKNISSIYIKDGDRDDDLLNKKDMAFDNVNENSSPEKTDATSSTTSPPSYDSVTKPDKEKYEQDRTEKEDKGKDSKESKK

IC50 [nM]	Compound
< 1000	Cc1cc(C(=O)NC(C)c2cccc(SC(F)(F)F)c2)cc(NC(=O)C(C)C)n1 (single isomer, unassigned) [Example 1032, 2-isobutyramido-6-methyl-N-(1-(3-((trifluoromethyl)thio)phenyl)ethyl)isonicotinamide]
< 1000	CC(C)C(=O)Nc1cc(C(=O)NC(C)c2cccc(OCC(F)(F)F)c2)ccn1 (single isomer, unassigned) [Example 561, 2-isobutyramido-N-(1-(3-(2,2,2-trifluoroethoxy)phenyl)ethyl)isonicotinamide]
< 1000	CCC(=O)Nc1nc(C)cc(C(=O)NC(C)c2cnc(OCC(F)(F)F)c(Cl)c2)n1 (single isomer, unassigned) [Example 214, N-(1-(5-chloro-6-(2,2,2-trifluoroethoxy)pyridin-3-yl)ethyl)-6-methyl-2-propionamidopyrimidine-4-carboxamide]
< 1000	Cc1cc(CNC(=O)c2ccnc(NC(=O)C3CC3)n2)ccc1OCC(F)F [Example 992, 2-(cyclopropanecarboxamido)-N-(4-(2,2-difluoroethoxy)-3-methylbenzyl)pyrimidine-4-carboxamide]
< 1000	CC(=O)Nc1cc(C(=O)NCc2cnc(OCC(F)(F)F)cc2C)cc(C)n1 [Example 243, 2-acetamido-6-methyl-N-((4-methyl-6-(2,2,2-trifluoroethoxy)pyridin-3-yl)methyl)isonicotinamide]
< 1000	Cc1cc(C(=O)NC(C)c2cnc(OCC(F)(F)C(F)F)c(C)c2)nc(NC(=O)C2CC2)n1 (single isomer, unassigned) [Example 907, 2-(cyclopropanecarboxamido)-6-methyl-N-(1-(5-methyl-6-(2,2,3,3-tetrafluoropropoxy)pyridin-3-yl)ethyl)pyrimidine-4-carboxamide]
< 1000	Cc1cc(C(=O)NC(C)c2ccc(OCC(F)F)c(C)c2)nc(NC(=O)C2CC2)n1 (single isomer, unassigned) [Example 1075, 2-(cyclopropanecarboxamido)-N-(1-(4-(2,2-difluoroethoxy)-3-methylphenyl)ethyl)-6-methylpyrimidine-4-carboxamide]
< 1000	CC(=O)Nc1cc(C(=O)NC(C)c2cc(C)nc(OCC(F)(F)F)c2)ccn1 (single isomer, unassigned) [Example 73, 2-acetamido-N-(1-(2-methyl-6-(2,2,2-trifluoroethoxy)pyridin-4-yl)ethyl)isonicotinamide]
< 1000	CC(=O)Nc1cc(C(=O)NC(C)c2cc(C(F)(F)F)ccc2F)cc(C)n1 (single isomer, unassigned) [Example 981, 2-acetamido-N-(1-(2-fluoro-5-(trifluoromethyl)phenyl)ethyl)-6-methyl-isonicotinamide]
< 1000	COc1nc(OCC(F)F)ccc1C(C)NC(=O)c1ccnc(NC(=O)C(C)C)c1 (single isomer, unassigned) [Example 1163, N-(1-(6-(2,2-difluoroethoxy)-2-methoxypyridin-3-yl)ethyl)-2-isobutyramidoisonicotinamide]
< 1000	COc1nc(OCC(F)F)ccc1CNC(=O)c1ccnc(NC(=O)C(C)C)c1 [Example 1154, N-((6-(2,2-difluoroethoxy)-2-methoxypyridin-3-yl)methyl)-2-isobutyramidoisonicotinamide]
< 1000	CC(=O)Nc1cc(C(=O)NCc2ccc(OCC(F)F)cc2C)cc(C)n1 [Example 1007, 2-acetamido-N-(4-(2,2-difluoroethoxy)-2-methylbenzyl)-6-methylisonicotinamide]
< 1000	CC(C)C(=O)Nc1cc(C(=O)NC(C)c2cnc(OCC(F)(F)F)c(F)c2)ccn1 (single isomer, unassigned) [Example 220, N-(1-(5-fluoro-6-(2,2,2-trifluoroethoxy)pyridin-3-yl)ethyl)-2-isobutyramidoisonicotinamide]
< 1000	CC(NC(=O)c1ccnc(NC(=O)C2CC2)c1)c1ccc(OCC(F)(F)F)cc1Cl (single isomer, unassigned) [Example 798, N-(1-(2-chloro-4-(2,2,2-trifluoroethoxy)phenyl)ethyl)-2-(cyclopropanecarboxamido)isonicotinamide]
< 1000	CCCC(=O)Nc1cc(C(=O)NC(C)c2cnc(OCC(F)(F)F)c(OC)c2)ccn1 (single isomer, unassigned) [Example 331, 2-butyramido-N-(1-(5-methoxy-6-(2,2,2-trifluoroethoxy)pyridin-3-yl)ethyl)isonicotinamide]

The remaining lines, values behind:

Compound	IC50 [nM]
Cc1cc(CNC(=O)c2ccnc(NC(=O)C(C)C)c2)cnc1OCC(F)(F)F [Example 370, 2-isobutyramido-N-((5-methyl-6-(2,2,2-trifluoroethoxy)pyridin-3-yl)methyl)isonicotinamide]	< 1000
Cc1cc(C(=O)NCc2ccc(OCCC(F)(F)F)nc2)cc(NC(=O)C(C)C)n1 [Example 490, 2-isobutyramido-6-methyl-N-((6-(3,3,3-trifluoropropoxy)pyridin-3-yl)methyl)isonicotinamide]	< 1000
CC(=O)Nc1cc(C(=O)NC(C)c2cccc(SC(F)(F)F)c2)cc(C)n1 (single isomer, unassigned) [Example 1031, 2-acetamido-6-methyl-N-(1-(3-((trifluoromethyl)thio)phenyl)ethyl)isonicotinamide]	< 1000
CC(=O)Nc1cc(C(=O)NC(C)c2ccc(OCC(F)(F)C(F)(F)F)nc2)ccn1 (single isomer, unassigned) [Example 924, 2-acetamido-N-(1-(6-(2,2,3,3,3-pentafluoropropoxy)pyridin-3-yl)ethyl)isonicotinamide]	< 1000
Cc1cc(C(=O)NCc2cnc(OCC(F)F)c(C)c2)cc(NC(=O)C2CC2)n1 [Example 851, 2-(cyclopropanecarboxamido)-N-((6-(2,2-difluoroethoxy)-5-methylpyridin-3-yl)methyl)-6-methylisonicotinamide]	< 1000
CCOc1nc(OCC(F)(F)F)ccc1CNC(=O)c1ccnc(NC(=O)CC)c1 [Example 333, N-((2-ethoxy-6-(2,2,2-trifluoroethoxy)pyridin-3-yl)methyl)-2-propionamidoisonicotinamide]	< 1000
CC(C)C(=O)Nc1cc(C(=O)NC(C)c2ccc(OCC(F)(F)F)cc2)ccn1 (single isomer, unassigned) [Example 562, 2-isobutyramido-N-(1-(4-(2,2,2-trifluoroethoxy)phenyl)ethyl)isonicotinamide]	< 1000
CCC(=O)Nc1cc(C(=O)NCc2cnc(OCC(F)F)c(Cl)c2)cc(C)n1 [Example 618, N-((5-chloro-6-(2,2-difluoroethoxy)pyridin-3-yl)methyl)-2-methyl-6-propionamidoisonicotinamide]	< 1000
COc1cc(C(C)NC(=O)c2cc(C)nc(NC(=O)C3CC3)n2)cnc1OCC(F)(F)F (single isomer, unassigned) [Example 194, 2-(cyclopropanecarboxamido)-N-(1-(5-methoxy-6-(2,2,2-trifluoroethoxy)pyridin-3-yl)ethyl)-6-methylpyrimidine-4-carboxamide]	< 1000
Cc1cc(CNC(=O)c2ccnc(NC(=O)C(C)C)c2)ccc1OCC(F)F [Example 991, N-(4-(2,2-difluoroethoxy)-3-methylbenzyl)-2-isobutyramidoisonicotinamide]	< 1000
CC(=O)Nc1cc(C(=O)NC(C)c2ccc(OCC(F)(F)F)cc2Cl)ccn1 (single isomer, unassigned) [Example 796, 2-acetamido-N-(1-(2-chloro-4-(2,2,2-trifluoroethoxy)phenyl)ethyl)isonicotinamide]	< 1000
CC(NC(=O)c1ccnc(NC(=O)C2CC2)n1)c1cnc(OCC(F)(F)F)c(Cl)c1 (single isomer, unassigned) [Example 211, N-(1-(5-chloro-6-(2,2,2-trifluoroethoxy)pyridin-3-yl)ethyl)-2-(cyclopropanecarboxamido)pyrimidine-4-carboxamide]	< 1000
CC(C)C(=O)Nc1nccc(C(=O)NC(C)c2cnc(OCC(F)(F)F)c(Cl)c2)n1 (single isomer, unassigned) [Example 212, N-(1-(5-chloro-6-(2,2,2-trifluoroethoxy)pyridin-3-yl)ethyl)-2-isobutyramidopyrimidine-4-carboxamide]	< 1000
CC(C)C(=O)Nc1cc(C(=O)NCc2cnc(OCC(F)(F)F)c(Br)c2)ccn1 [Example 897, N-((5-bromo-6-(2,2,2-trifluoroethoxy)pyridin-3-yl)methyl)-2-isobutyramidoisonicotinamide]	< 1000
Cc1cc(C(=O)NC(C)c2ccc(OCC(F)(F)F)c(Cl)c2)nc(NC(=O)C2CC2)n1 (single isomer, unassigned) [Example 679, N-(1-(3-chloro-4-(2,2,2-trifluoroethoxy)phenyl)ethyl)-2-(cyclopropanecarboxamido)-6-methylpyrimidine-4-carboxamide]	< 1000
COc1cc(CNC(=O)c2cc(C)nc(NC(C)=O)c2)ccc1OCC(F)(F)F [Example 884, 2-acetamido-N-(3-methoxy-4-(2,2,2-trifluoroethoxy)benzyl)-6-methylisonicotinamide]	< 1000
CCCC(=O)Nc1cc(C(=O)NCc2ccc(OCC(F)(F)F)nc2N2CCCCC2)ccn1 [Example 308, 2-butyramido-N-((2-(piperidin-1-yl)-6-(2,2,2-trifluoroethoxy)pyridin-3-yl)methyl)isonicotinamide]	< 1000
CC(C)C(=O)Nc1cc(C(=O)NC(C)c2ccc(OCCC(F)(F)F)nc2)ccn1 (single isomer, unassigned) [Example 186, 2-isobutyramido-N-(1-(6-(3,3,3-trifluoropropoxy)pyridin-3-yl)ethyl)isonicotinamide]	< 1000
CCC(=O)Nc1cc(C(=O)NCc2cccc(C(F)(F)F)c2OC)ccn1 [Example 1017, N-(2-methoxy-3-(trifluoromethyl)benzyl)-2-propionamidoisonicotinamide]	< 1000
